Data from US11369609B2, “Small molecule Wnt inhibitor as treatment for dyslipidemia” (Yale University, priority 2019, dated 2022).

Experiments:
kidney endothelial cells = assay: Fatty acid uptake in isolated kidney endothelial cells; type: in vivo; conditions: diabetic mice, radiolabeled [14C]palmitate uptake
Experimental: Endothelial cells from the kidneys of non-diabetic and diabetic mice were isolated using a standardized kit (Miltenyl Biotech, USA) by following the manufacturer's instructions. Briefly, kidneys were isolated and minced into small pieces. Using a series of enzymatic reactions by treating the tissue with trypsin and Collagenase type I solution, a single cell suspension was created. The pellet was dissolved with CD31 magnetic beads and the CD31-labelled cells were separated on a magnetic separator. The cells were further purified on a column. Cell number was counted by hemocytometer and cells were plated on 0.1% gelatin coated Petri dishes.
Cultured isolated kidney endothelial cells were incubated with medium containing 2 μCi [^14C]palmitate. [^14C]-palmitate uptake was measured by liquid scintillation counting.
It is increasingly recognized that defects in central metabolism contribute to kidney fibrosis (69, 76). Defective FA metabolism in EC leads to EndMT events (77). To investigate whether FA metabolism was deranged in the model, radiolabeled [^14C]palmitate uptake experiments were performed in isolated EC from mouse kidneys. […] FA oxidation (FAO) was also assessed by measuring the ^14CO2 release from radiolabeled [^14C]palmitate in cultured EC isolated from kidneys. […]

canonical Wnt signaling = assay: Renal fibrosis in diabetic GR^ECKO and control littermate mice treated with Wnt inhibitor; type: in vivo
Experimental: All experiments were performed in accordance with the National Institute of Health (NIH) Guidelines for the Care of Laboratory Animals. Mice lacking the endothelial glucocorticoid receptor (GR) (known as GR^ECKO) and those lacking this receptor on the Apo E null background (DKO) were generated as previously described (6). The induction of diabetes in CD-1 mice and C57B/L6 mice was performed according to previously established experimental protocols (38-42). Briefly, diabetes was induced in 10-week-old GR^ECKO mice with five consecutive intraperitoneal (IP) doses of streptozotocin (STZ) 50 mg/kg in 10 mmol/L citrate buffer (pH 4.5). Wnt inhibitor (LGK974) was provided to GR^ECKO and control littermate at 5 mg/kg at a frequency of six doses per week for 8 weeks (43). Etomoxir (20 mg/kg) and c75 (15 mg/kg) were dosed (ip) three times per week for 3 weeks in the GR^ECKO and control littermate. A single IP dose of 200 mg/kg STZ was used to induce diabetes in CD-1 mice. Fenofibrate (100 mg/kg), simvastatin (40 mg/kg), were dosed orally for 4 weeks in diabetic CD-1 mice. All mice were sacrificed after 4 weeks of treatment and tissues and blood were harvested. Urine albumin levels were assayed using a Mouse Albumin ELISA Kit (Exocell, Philadelphia, Pa.).
A point-counting method was utilized to evaluate the relative area of the mesangial matrix. PAS-stained glomeruli from each mouse were analyzed using a digital microscope screen grid containing 540 (27×20) points. Masson's trichrome-stained images were evaluated by ImageJ software, and the fibrotic areas were estimated.
Deparaffinized sections were incubated with picrosirius red solution for 1 hour at room temperature. The slides were washed twice with acetic acid solution for 30 seconds per wash. The slides were then dehydrated in absolute alcohol three times, cleared in xylene, and mounted with a synthetic resin. Sirius red staining was analyzed using ImageJ software, and fibrotic areas were quantified.
Frozen kidney sections (5 μm) were used for immunofluorescence; double positive labeling with CD31/αSMA, CD31/TGFβR1 and E-cadherin/αSMA was measured. Briefly, frozen sections were dried and placed in acetone for 10 min at −30° C. Once the sections were dried, they were washed twice in phosphate-buffered saline (PBS) for 5 min and then blocked in 2% bovine serum albumin/PBS for 30 min at room temperature. Thereafter, the sections were incubated in primary antibody (1:100) for 1 hour and washed in PBS (5 min) three times. Next, the sections were incubated with the secondary antibodies for 30 min, washed with PBS three times (5 min each), and mounted with mounting medium with DAPI (Vector Laboratories, Burlingame, Calif.). The immune-labeled sections were analyzed by fluorescence microscopy. For each mouse, original magnification of ×400 pictures were obtained from six different areas, and quantification was performed.
Frozen sections (5 μm) were used for the detection of EndMT and EMT. Cells undergoing EndMT were detected by double-positive labeling for CD31 and αSMA and/or TGFβR1. Cells undergoing EMT were detected by double-positive labeling for E-cadherin and αSMA. Sections were analyzed and quantified by fluorescence microscopy.
To determine whether Wnt inhibition could mitigate the renal fibrosis observed in diabetic mice lacking endothelial GR, a cohort of animals was treated with the Wnt inhibitor, LGK974. At the age of 8 weeks, control and GR^ECKO mice were injected with STZ 50 mg/kg for five consecutive days. Sixteen weeks after injection, LGK974 was administered by oral gavage for eight additional weeks (FIG. 16A).

[1] = diabetic control vs diabetic GR^ECKO mice

`Cc1cc(-c2ncc(CC(=O)Nc3ccc(-c4cnccn4)cn3)cc2C)ccn1` [LGK974] was tested, and the “FA uptake in isolated kidney EC” value (kidney endothelial cells) was “suppressed FA uptake”, the “effect on Wnt signaling, fibrogenic phenotype and endothelial GR level in GR^ECKO” value (canonical Wnt signaling; GR^ECKO vs mouse model of diabetic kidney disease) was “less evident” and the body weight (canonical Wnt signaling; at sacrifice, among the groups, LGK974 oral gavage 8 weeks) was “no differences”. The “level of EMT (E-cadherin/αSMA co-positive cells)” value (canonical Wnt signaling; control and diabetic GR^ECKO mice) was “significantly reduced”, the renal fibrosis (canonical Wnt signaling; diabetic GR^ECKO and DKO mice (legend of FIG. 16)) was “partially abrogates the renal fibrosis” and the kidney weight (canonical Wnt signaling; diabetic GR^ECKO and diabetic control mice) was “significant reduction”. The “EndMT (CD31/αSMA co-positive cells)” value (canonical Wnt signaling; diabetic GR^ECKO mice) was “less pronounced”, the “relative area of fibrosis” value (canonical Wnt signaling; diabetic GR^ECKO mice) was “less pronounced, though still significant” and the relative collagen deposition (canonical Wnt signaling; diabetic GR^ECKO mice) was “less pronounced, though still significant”. For the same molecule, the tubular damage (canonical Wnt signaling; diabetic GR^ECKO mice) was “less pronounced, though still significant”, the “EndMT (CD31/αSMA co-positive cells)” value (canonical Wnt signaling; diabetic control mice) was “significantly suppressed” and the “relative area of fibrosis” value (canonical Wnt signaling; diabetic control mice) was “clearly improved”. The relative collagen deposition (canonical Wnt signaling; diabetic control mice) was “clearly improved”, the tubular damage (canonical Wnt signaling; diabetic control mice) was “clearly improved” and the staining of fibronectin (canonical Wnt signaling; [1]) was “A similar pattern was observed”. For the same molecule, the “staining of β-catenin” value (canonical Wnt signaling; [1]) was “A similar pattern was observed”.
